{
  "source": "patent US5382586A",
  "about": "“Aryl (or heteroaryl)piperazinylalkylazole derivatives, their preparation and their application as medicaments” (priority 1991, dated 1995)",
  "key": {"[1]": {"test_system": "conditioned avoidance response in male Wistar rats", "experiment": "conditioned avoidance response test (inhibition of the conditioned avoidance response; anxiolytic/tranquillising activity)", "assay_type": "in vivo, rat (male Wistar)", "conditions": "D = 80 mg/kg, p.o.; rat; 45 min before test", "procedure": "Male Wistar rats weighing 200 grammes which have been trained to jump over a barrier in an avoidance and escape cage (shuttle box) (Letica, reference LI 910 and LI 2700) within 30 seconds of their being introduced into the cage are used in this test.\nThe products having an anxiolytic or tranquillising activity suppress the conditioned avoidance response.\nTraining: day one: 11 trials at 3 minute intervals. Electric shock to the paws after 30 seconds (5 mA, 0.1 s, 10 s).\nDays two and three: 2 trials per day, with the selected rats only [sum of the scores for the first day (with the exception of the first trial)>14].\nTest day: groups formed by selected rats. Oral administration of the product or the vehicle 45 minutes before the start of the study."}, "[2]": {"test_system": "norepinephrine-induced death in rats", "experiment": "norepinephrine antagonism test in rats (antihypertensive activity)", "assay_type": "in vivo, rat (male Wister)", "procedure": "This activity is manifested by the protection of animals before death induced by an intravenous injection of norepinephrine, which produces a hypertensive attack in rats.\nMale Wister rats weighing 200 grammes are used in this test. The product to be studied is administered intraperitoneally and 1.25 mg/kg (i.v.) of norepinephrine are administered after 2 hours.\nThe initial administration dose in these studies is 40 mg/kg (i.p.)."}, "immobility of mice": {"test_system": "immobility of mice", "experiment": "desperate behaviour test (antidepressant activity)", "assay_type": "in vivo, mouse", "conditions": "30 mg/kg, i.p.; p < 0.05; control 118 s", "procedure": "The desperate behaviour test in mice, described by R. D. Porsolt et al. (Arch. Int. Pharmacodyn. 1977, 229, 327-336), is used.\nThe animals are placed for 6 minutes in a cylinder containing water, from which they are not able to escape. The period of immobility between minutes 2 and 5 is determined for groups of 10 mice per dosage tested.\nThe product studied is administered i.p. 1 hour before the test. In this test the immobility of the animals is explained as being produced by their depressed state resulting from being faced with an adverse and insoluble situation in a hostile environment such as water.\nIn our test imipramine (30 mg/kg; i.p.) was used as reference product."}, "[3]": {"test_system": "familiarisation process in mice", "experiment": "light box/dark box test: familiarisation process (improvement of cognition)", "assay_type": "in vivo, mouse", "description": "The influence of this product on the familiarisation process of mice in the light box/dark box test described by J. M. Barnes et al., (Pharmacol. Biochem. Behav., 1990, 35, 955-962) is studied. On the one hand, the effect on learning (the speed of familiarisation) and on the other hand the capacity for blocking contrary effects produced by escopolamine are studied.\nThe mouse is placed in the light zone of a box divided into two compartments, one brightly illuminated, the light box, and the other with little illumination, the dark box.\n1) The number of times the mouse stands up on the hind paws in each compartment during a 5 minute period is counted (see Column 1 of the table below).\n2) The activity in each compartment is given by counting the number of crossings through the squares which form the divisions of each compartment (see Column 2 of the table below).\n3) The time passed in the dark box during the 5 minute counting period is determined (see Column 3 of the table below).\n4) The initial latent period is determined, that is to say the time which elapses after the animal is placed in the light box, at the start of the test, before it enters the dark box (see Column 4 of the table below).\nTwo treatments with the vehicle are administered to the control animals per day. Two doses of 0.00001 ng/kg p.o. of compound 42 are administered per day to the animals treated with this product. The same operation is repeated daily for 5 days.\nThe animals learn to remain in the dark box for a longer period and to go into the box more rapidly.\nOn day six escopolamine (2×0.25 mg/kg, i.p.) is administered.\nThey recover the learned habit on day seven."}, "[4]": {"conditions": "day 6, after 2 treatments with escopolamine (0.25 mg/kg, i.p.), Example 42 at 0.00001 ng/kg p.o. twice per day"}},
  "data": [
    {"smiles": "COc1ccccc1N1CCN(CCCNc2cc(C)nn2C)CC1", "note": "[Example 45, 1,3-dimethyl-5-{3-[4-(2-methoxyphenyl)-1-piperazinyl]-propylamino}-1H-pyrazole]", "values": [
      {"measurement": "Activity % (inhibition of the conditioned avoidance response)", "setting": "[1]", "value": 100, "unit": "%"},
      {"measurement": "Activity % (norepinephrine antagonistic antihypertensive activity)", "setting": "[2]; D = 40 mg/kg, i.p., rat, norepinephrine 1.25 mg/kg i.v. after 2 hours", "value": 100, "unit": "%"},
      {"measurement": "ED50", "setting": "[2]; Rattus norvegicus, ip, 2 h, read-out: ED50 (norepinephrine antagonistic antihypertensive activity)", "value": 2.8, "unit": "mg/kg"}
    ]},
    {"smiles": "CN(C)CCCN1c2ccccc2CCc2ccccc21", "note": "[Imipramine, reference compound]", "values": [
      {"measurement": "Period of immobility", "setting": "immobility of mice", "value": 71, "unit": "s"}
    ]},
    {"smiles": "NC(=O)CN1CCCC1=O", "note": "[Piracetam, reference compound]", "values": [
      {"measurement": "cognition-improving activity", "setting": "[3]; mice", "value": "no activity"}
    ]},
    {"smiles": "CN1C2CC(OC(=O)C(CO)c3ccccc3)CC1C1OC12", "note": "(stereo not drawn) [escopolamine, reference compound]", "values": [
      {"measurement": "effect on the learned behaviour (control group)", "setting": "[3]; 2×0.25 mg/kg, i.p., day six", "value": "the animals of the control group \"forget\" the learned behaviour"},
      {"measurement": "Activity within 5 min. period, dark (D)", "setting": "[3]; [4]", "value": 30},
      {"measurement": "Activity within 5 min. period, light (L)", "setting": "[3]; [4]", "value": 67},
      {"measurement": "Latent period L-D", "setting": "[3]; [4]", "value": 21},
      {"measurement": "No. of times standing erect within 5 min period, dark (D)", "setting": "[3]; [4]", "value": 38},
      {"measurement": "No. of times standing erect within 5 min period, light (L)", "setting": "[3]; [4]", "value": 59},
      {"measurement": "Time in the box, dark (D)", "setting": "[3]; [4]", "value": 27}
    ]}
  ]
}
